PMC6008491, “Discovery of a novel allosteric inhibitor scaffold for polyadenosine-diphosphate-ribose polymerase 14 (PARP14) macrodomain 2” (Bioorganic & Medicinal Chemistry, 2018)
Read-outs that look alike come from different tables or passages of the source. One block for each molecule: values may come before it.

Assays:
PARP14 MD2 [1] = target: T1, PARP14 MD2 (Homo sapiens, UniProt Q460N5); experiment: Biophysical KD determination (Bio-Layer Interferometry or Isothermal Titration Calorimetry); assay type: binding; parameters: PARP14 MD2 (second MD of PARP14)
T1 sequence (Q460N5 1003-1190 limits assumed): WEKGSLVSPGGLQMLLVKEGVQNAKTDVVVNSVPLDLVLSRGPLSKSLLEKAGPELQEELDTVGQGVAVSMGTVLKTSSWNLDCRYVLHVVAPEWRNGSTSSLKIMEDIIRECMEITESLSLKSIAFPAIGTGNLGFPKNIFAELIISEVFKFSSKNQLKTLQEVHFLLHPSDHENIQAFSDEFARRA
Source text: (§1) Compounds were profiled for binding activity with PARP14 MD2 through a competitive (AlphaScreen™) binding assay measuring the displacement of ADP-ribose peptide from PARP14 MD2.[11a]

PARP14 MD2 [2] = target: T1, PARP14 MD2; experiment: AlphaScreen competitive binding assay, displacement of ADP-ribose peptide from PARP14 MD2; parameters: PARP14 MD2 (second MD of PARP14)
Source text: as §1

PARP14 MD2 [3] = target: T1, PARP14 MD2; experiment: BioLayer Interferometry (BLI)
[4] = Table 2, AlphaScreen, PARP14 MD2, read-out: IC50
[5] = Table 1, AlphaScreen, PARP14 MD2, read-out: IC50
[6] = text and figures, read-out: PARP14 MD2 IC50

SMILES: O=C(Cc1cnccn1)Nc1ccccc1-c1cccc2c1[nH]c1ccccc12 [compound 85, N-(2-(9H-Carbazol-1-yl)phenyl)-2-(pyrazin-2-yl)acetamide]
- Kd (PARP14 MD2 [1]; Table 2, BLI or ITC): 3900 nM
- IC50 (PARP14 MD2 [2]; [4]): 2100 ± 100 nM

SMILES: CC(=O)Nc1cccc(C)c1-c1cccc2c1[nH]c1ccccc12 [compound 57, N-(2-(9H-Carbazol-1-yl)-3-methylphenyl)acetamide]
- Kd (PARP14 MD2 [1]; Table 1, BLI or ITC): 1600 ± 700 nM
- IC50 (PARP14 MD2 [2]; [5]): 1700 ± 100 nM

SMILES: CS(=O)(=O)Nc1cc(C#N)ccc1-c1cccc2c1[nH]c1ccccc12 [compound 56, N-(2-(9H-Carbazol-1-yl)-5-cyanophenyl)methanesulfonamide]
- Kd (PARP14 MD2 [1]; Table 1, BLI or ITC): 5200 ± 1700 nM

SMILES: CC(=O)Nc1ccccc1-c1cccc2c3c([nH]c12)CCCC3 [compound 44, N-[2-(5,6,7,8-Tetrahydro-9H-carbazol-1-yl)phenyl]acetamide]
- IC50 (PARP14 MD2 [2]; [6]): 1100 nM

SMILES: CC(=O)Nc1cccnc1-c1cccc2c1[nH]c1ccccc12 [compound 16, N-[2-(9H-Carbazol-1-yl)pyridin-3-yl]acetamide]
- IC50 (PARP14 MD2 [2]; [6]): > 50000 nM

SMILES: CC(=O)Nc1ccccc1-c1cn2c3ccccc3c3cccc(c1=O)c32 [compound 20, N-[2-(4-Oxo-4H-pyrido[3,2,1-jk]carbazol-5-yl)phenyl]acetamide]
- IC50 (PARP14 MD2 [2]; [6]): > 50000 nM

SMILES: CC(=O)Nc1ccccc1-c1cccc2c1[nH]c1c(Cl)c(Cl)ccc12 [compound 37, N-[2-(7,8-Dichloro-9H-carbazol-1-yl)phenyl]acetamide]
- IC50 (PARP14 MD2 [2]; [6]): 1400 nM

SMILES: COc1ccc(C(=O)Nc2ccccc2-c2cccc3c2[nH]c2ccccc23)cc1 [compound 82, N-(2-(9H-Carbazol-1-yl)phenyl)-4-methoxybenzamide]
- IC50 (PARP14 MD2 [2]; [5]): 9000 ± 1400 nM

SMILES: CC(=O)Nc1ccccc1-c1cccc2c3ccccc3n(Cc3ccccc3)c12 [compound 25, N-[2-(9-Benzyl-9H-carbazol-1-yl)phenyl]acetamide]
- IC50 (PARP14 MD2 [2]; [6]): > 50000 nM

SMILES: O=C(Cc1ccc(Cl)c(Cl)c1)Nc1ccccc1-c1cccc2c1[nH]c1ccccc12 [compound 102, N-(2-(9H-Carbazol-1-yl)phenyl)-2-(3,4-dichlorophenyl)acetamide]
- IC50 (PARP14 MD2 [2]; [4]): 6300 ± 600 nM

Results, then the molecule that gave them:

- Kd (PARP14 MD2 [1]; Table 2, BLI or ITC): 1500 nM
- IC50 (PARP14 MD2 [2]; [4]): 1100 nM
SMILES: O=C(Cc1cccnc1)Nc1ccccc1-c1cccc2c1[nH]c1ccccc12 [compound 83, N-(2-(9H-Carbazol-1-yl)phenyl)-2-(pyridin-3-yl)acetamide]

- Kd (PARP14 MD2 [1]; Table 2, BLI or ITC): 550 nM
- Kd (PARP14 MD2 [3]; read-out: KD (BLI)): 550 nM
- Kd (PARP14 MD2 [3]; read-out: calculated KD (BLI)): 550 nM
- IC50 (PARP14 MD2 [2]; [4]): 660 ± 30 nM
SMILES: N#Cc1cccc(CS(=O)(=O)Nc2ccccc2-c2cccc3c2[nH]c2ccccc23)c1 [compound 108, N-(2-(9H-Carbazol-1-yl)phenyl)-1-(3-cyanophenyl)methanesulfonamide]

- Kd (PARP14 MD2 [1]; Table 2, BLI or ITC): 1300 nM
- IC50 (PARP14 MD2 [2]; [4]): 1200 nM
SMILES: N#Cc1ccc(F)c(CS(=O)(=O)Nc2ccccc2-c2cccc3c2[nH]c2ccccc23)c1 [compound 100, N-(2-(9H-Carbazol-1-yl)phenyl)-1-(5-cyano-2-fluorophenyl)methanesulfonamide]

- Kd (PARP14 MD2 [1]; Table 2, BLI or ITC): 2700 nM
- IC50 (PARP14 MD2 [2]; [4]): 1000 nM
SMILES: Cc1ccc(CC(=O)Nc2ccccc2-c2cccc3c2[nH]c2ccccc23)cn1 [compound 84, N-(2-(9H-Carbazol-1-yl)phenyl)-2-(6-methylpyridin-3-yl)acetamide]

- IC50 (PARP14 MD2 [2]; [4]): 2400 ± 100 nM
SMILES: O=S(=O)(Cc1ccccc1F)Nc1ccccc1-c1cccc2c1[nH]c1ccccc12 [compound 89, N-(2-(9H-Carbazol-1-yl)phenyl)-1-(2-fluorophenyl)methanesulfonamide]

- IC50 (PARP14 MD2 [2]; [4]): 8100 ± 700 nM
SMILES: O=S(=O)(Cc1ccc(C(F)(F)F)cc1)Nc1ccccc1-c1cccc2c1[nH]c1ccccc12 [compound 97, N-(2-(9H-Carbazol-1-yl)phenyl)-1-(4-(trifluoromethyl)phenyl)methanesulfonamide]

- IC50 (PARP14 MD2 [2]; [5]): 8600 ± 400 nM
SMILES: COCCS(=O)(=O)Nc1ccccc1-c1cccc2c1[nH]c1ccccc12 [compound 69, N-(2-(9H-Carbazol-1-yl)phenyl)-2-methoxyethane-1-sulfonamide]

- IC50 (PARP14 MD2 [2]; [5]): 3300 ± 100 nM
SMILES: CCCCS(=O)(=O)Nc1ccccc1-c1cccc2c1[nH]c1ccccc12 [compound 64, N-(2-(9H-Carbazol-1-yl)phenyl)butane-1-sulfonamide]

- IC50 (PARP14 MD2 [2]; [5]): > 50000 nM
SMILES: COc1ccccc1C(=O)Nc1ccccc1-c1cccc2c1[nH]c1ccccc12 [compound 80, N-(2-(9H-Carbazol-1-yl)phenyl)-2-methoxybenzamide]
